Experiments:
MAR-Arf1L8K,Q71L chimera [1] = target: T1, MAR-Arf1L8K,Q71L chimera (Candidatus Actinomarina minuta, UniProt S5DM51); assay: X-ray crystallography, cryotrapped N state; assay type: binding; settings: covalent; photoisomer formed in situ by 532-nm light; pH 7.0; 2.3 A; isomer not assignable from density alone
T1 construct: MAR fused to bovine Arf1 (L8K, Q71L) as crystallisation spacer on the cytoplasmic side; C-terminal GSGGSHHHHHH tag; expressed in E. coli C41(DE3); retinal site wholly in MAR

MAR-Arf1L8K,Q71L chimera [2] = target: T1, MAR-Arf1L8K,Q71L chimera; assay: X-ray crystallography; assay type: binding; settings: covalent; Schiff base to Lys200 of MAR; dark (ground) state, pH 7.0; all-trans form taken from MAR ground state
Asp72 (position 72, …) = assay: UV-vis; settings: dark (ground) state, solubilized MAR with all-trans retinal

T1 sequence (P84080 2-181 L8K/Q71L, one chain of several, further chain): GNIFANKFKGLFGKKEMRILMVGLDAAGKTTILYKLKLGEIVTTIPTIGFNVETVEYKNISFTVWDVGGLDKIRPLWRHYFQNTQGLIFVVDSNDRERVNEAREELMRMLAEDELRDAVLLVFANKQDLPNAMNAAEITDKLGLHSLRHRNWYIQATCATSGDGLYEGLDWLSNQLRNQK

Molecule: CC1=C(/C=C/C(C)=C/C=C/C(C)=C\C=O)C(C)(C)CCC1 [13-cis,15-anti retinal]
- X-ray crystallography, cryotrapped N state (MAR-Arf1L8K,Q71L chimera [1]): the retinal conformation in the N state represents the 13-cis,15-anti form

Molecule: CC1=C(/C=C/C(C)=C/C=C/C(C)=C/C=O)C(C)(C)CCC1 [all-trans retinal]
- X-ray crystallography (MAR-Arf1L8K,Q71L chimera [2]): The conformation of the MAR molecule is similar to that in the ground state

B1: MAR (marine actinobacterial rhodopsin, MacR), a proteorhodopsin (Candidatus Actinomarina minuta) (protein)
chain: MEELTYRLFMVATVGMLAGTVFLLASSREVKPEHRRGVYISALVCGIAWYHYQKMGASWESGSYDTGLRYVDWVLTVPLMFVEVLAVTRKGAAYNEAVRNWGIAATVMIGAGYYGETSAAGSNEYWTGFVIAMATYVWLMRNLQAEGEGLKGDQAVAFENIKNLILVGWIIYPLGYIAPVVGDFDAIREVLYTIADIINKVGLGVLVLQMARVQSGEKVSPGGGSHHHHHH
- pKa (Asp72 (position 72, …)): ~7.4
